PubChem BioAssay (NCI)
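Cells were grown in 96-well plates and exposed to each compound for 48 hours at five concentrations; endpoints were interpolated linearly between bracketing concentrations, or set to the highest concentration if not reached. Definition used: TGI = concentration required for complete inhibition of growth.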

Key:
Assay in all cases: NCI tumour cell line growth inhibition, 48 h
[1] = system: 786-0 renal
[2] = system: A498 renal
[3] = system: A549 NSCLC
[4] = system: ACHN renal
[5] = system: BT-549 breast
[6] = system: CAKI-1 renal
[7] = system: CCRF-CEM leukemia
[8] = system: COLO 205 colon
[9] = system: DU-145 prostate
[10] = system: EKVX NSCLC
[11] = system: HCC-2998 colon
[12] = system: HCT-116 colon
[13] = system: HCT-15 colon
[14] = system: HL-60(TB) leukemia
[15] = system: HOP-62 NSCLC
[16] = system: HOP-92 NSCLC
[17] = system: HS 578T breast
[18] = system: HT29 colon
[19] = system: IGROV1 ovarian
[20] = system: K-562 leukemia
[21] = system: KM12 colon
[22] = system: LOX IMVI melanoma
[23] = system: M14 melanoma
[24] = system: MALME-3M melanoma
[25] = system: MCF7 breast
[26] = system: MDA-MB-231 breast
[27] = system: MDA-MB-435
[28] = system: MDA-N
[29] = system: MOLT-4 leukemia
[30] = system: NCI-H226 lung
[31] = system: NCI-H23 lung
[32] = system: NCI-H460 lung
[33] = system: NCI-H522 lung
[34] = system: NCI/ADR-RES ovarian
[35] = system: OVCAR-3 ovarian
[36] = system: OVCAR-4 ovarian
[37] = system: OVCAR-5 ovarian
[38] = system: OVCAR-8 ovarian
[39] = system: PC-3 prostate
[40] = system: RPMI-8226 leukemia
[41] = system: RXF 393 renal
[42] = system: SF-268 CNS
[43] = system: SF-295 CNS
[44] = system: SF-539 CNS
[45] = system: SK-MEL-2 melanoma
[46] = system: SK-MEL-28 melanoma
[47] = system: SK-MEL-5 melanoma
[48] = system: SK-OV-3 ovarian
[49] = system: SN12C renal
[50] = system: SNB-19 CNS
[51] = system: SR leukemia
[52] = system: SW-620 colon
[53] = system: T-47D breast
[54] = system: TK-10 renal
[55] = system: U251 CNS
[56] = system: UACC-257 melanoma
[57] = system: UACC-62 melanoma
[58] = system: UO-31 renal
[59] = system: DLD-1 colon
[60] = system: DMS 114 small cell lung
[61] = system: DMS 273 small cell lung
[62] = system: HOP-18 NSCLC
[63] = system: LXFL 529 NSCLC
[64] = system: M19-MEL melanoma
[65] = system: SNB-75 CNS

COC(=O)C1=C(C)NC(C)=C([N+](=O)[O-])C1c1cccc(N=O)c1 (centres undefined)
TGI [1]: 27.2 µM
TGI [2]: 58.4 µM
TGI [3]: 40.1 µM
TGI [4]: 24.8 µM
TGI [5]: 30.7 µM
TGI [6]: 20.6 µM
TGI [7]: > 100 µM
TGI [8]: 29 µM
TGI [9]: 28.7 µM
TGI [10]: 41.2 µM
TGI [11]: 34.8 µM
TGI [12]: 23 µM
TGI [13]: 29.1 µM
TGI [14]: > 100 µM
TGI [15]: 34.5 µM
TGI [16]: 12.8 µM
TGI [17]: 39.1 µM
TGI [18]: 33.1 µM
TGI [19]: 29.5 µM
TGI [20]: > 100 µM
TGI [21]: 26.4 µM
TGI [22]: 30 µM
TGI [23]: 25.8 µM
TGI [24]: 25.2 µM
TGI [25]: 38.5 µM
TGI [26]: 32.6 µM
TGI [27]: 25.4 µM
TGI [28]: 21.6 µM
TGI [29]: > 100 µM
TGI [30]: 63.4 µM
TGI [31]: 33.5 µM
TGI [32]: 31.1 µM
TGI [33]: 5.34 µM
TGI [34]: 45.9 µM
TGI [35]: 28.6 µM
TGI [36]: 24.7 µM
TGI [37]: 30.5 µM
TGI [38]: 32.1 µM
TGI [39]: 32.9 µM
TGI [40]: > 100 µM
TGI [41]: 27.6 µM
TGI [42]: 32 µM
TGI [43]: 51.5 µM
TGI [44]: 30.9 µM
TGI [45]: 33.8 µM
TGI [46]: 32 µM
TGI [47]: 29.6 µM
TGI [48]: 46.6 µM
TGI [49]: 34.5 µM
TGI [50]: > 100 µM
TGI [51]: > 100 µM
TGI [52]: 13.3 µM
TGI [53]: 37.3 µM
TGI [54]: 25.4 µM
TGI [55]: 32 µM
TGI [56]: 25.1 µM
TGI [57]: 29 µM
TGI [58]: 24.8 µM

O=c1c2ccccc2nc(-c2ccccc2)n1NC(=S)Nc1ccccc1
TGI [1]: > 100 µM
TGI [2]: > 100 µM
TGI [3]: > 100 µM
TGI [4]: > 100 µM
TGI [6]: > 100 µM
TGI [7]: > 100 µM
TGI [8]: > 100 µM
TGI [59]: > 100 µM
TGI [60]: 73.7 µM
TGI [61]: > 100 µM
TGI [12]: > 100 µM
TGI [13]: > 100 µM
TGI [14]: > 100 µM
TGI [62]: > 100 µM
TGI [15]: > 100 µM
TGI [16]: > 100 µM
TGI [18]: > 100 µM
TGI [19]: > 100 µM
TGI [20]: > 100 µM
TGI [21]: > 100 µM
TGI [22]: > 100 µM
TGI [63]: > 100 µM
TGI [23]: > 100 µM
TGI [64]: > 100 µM
TGI [24]: > 100 µM
TGI [29]: > 100 µM
TGI [30]: > 100 µM
TGI [31]: > 100 µM
TGI [32]: > 100 µM
TGI [33]: > 100 µM
TGI [36]: > 100 µM
TGI [37]: > 100 µM
TGI [38]: > 100 µM
TGI [40]: > 100 µM
TGI [41]: > 100 µM
TGI [42]: > 100 µM
TGI [43]: > 100 µM
TGI [44]: > 100 µM
TGI [45]: > 100 µM
TGI [46]: > 100 µM
TGI [47]: > 100 µM
TGI [48]: > 100 µM
TGI [49]: > 100 µM
TGI [65]: > 100 µM
TGI [51]: > 100 µM
TGI [52]: > 100 µM
TGI [54]: > 100 µM
TGI [55]: > 100 µM
TGI [56]: > 100 µM
TGI [57]: > 100 µM
TGI [58]: > 100 µM
